The values that follow come from patent US20250145665A1, “MACROCYCLIC PEPTIDES USEFUL AS MODULATORS OF TNF ALPHA” (Bristol-Myers Squibb Company, priority 2023, published 2025).

In general, IC50 refers to the point on the concentration scale where inhibition reaches its midpoint.

Starred links: 1 amine or outer side, 2 acyl side, 3 side chain; linkers in the order of their positions; H or OH if unused. Positions of bridges follow the written chain, without caps; N, C: chain ends. Non-standard residues stand in square brackets, D forms with d. Residues, ends and D or L forms follow the SMILES beside them. ξ: configuration not given here. *: point of attachment. X2 = O=C(O)c1ccc(CNC(=O)c2cccc(-c3ccc(C[C@H](N[*:1])C(=O)[*:2])cc3)c2)cc1; dArg(Nω-CH2C6H4-3-CH2Gua) = N=C(N)NCc1cccc(CNC(=N)NCCC[C@@H](N)C(=O)O)c1; Bip(4'-NH) = O=C([C@H](Cc1ccc(-c2ccc(N[*:3])cc2)cc1)N[*:1])[*:2]; Bip(4'-CONHMe) = CNC(=O)c1ccc(-c2ccc(C[C@H](N)C(=O)O)cc2)cc1; dArg(ω-Bn(3-CH2OH)) = N=C(NCCC[C@@H](N)C(=O)O)NCc1cccc(CO)c1; Indazole3carbonyl(1-CH2COOH) = O=C(O)Cn1nc(C(=O)*)c2ccccc21; Bip(4'-COOH) = N[C@@H](Cc1ccc(-c2ccc(C(=O)O)cc2)cc1)C(=O)O; Bip(4'-NHAc) = CC(=O)Nc1ccc(-c2ccc(C[C@H](N)C(=O)O)cc2)cc1; Phe(4-(3-Py)) = N[C@@H](Cc1ccc(-c2cccnc2)cc1)C(=O)O; Phe(4-CF3) = N[C@@H](Cc1ccc(C(F)(F)F)cc1)C(=O)O; Ala(morpholin-4-yl) = N[C@@H](CN1CCOCC1)C(=O)O; Phe(3-CONH2) = NC(=O)c1cccc(C[C@H](N)C(=O)O)c1; Bip = N[C@@H](Cc1ccc(-c2ccccc2)cc1)C(=O)O; Abu(3S-NH2) = C[C@H](N)[C@H](N)C(=O)O; Ala(4-THP) = N[C@@H](CC1CCOCC1)C(=O)O; Cha = N[C@@H](CC1CCCCC1)C(=O)O; Tle = CC(C)(C)[C@H](N)C(=O)O; Aze = O=C(O)[C@@H]1CCN1; ξV = CC(C)C(N)C(=O)O; Sar = CNCC(=O)O

The target of one assay is TNFα (Homo sapiens, UniProt P01375). The assay is described as follows: TNF-Induced HEK-Blue Assay. The format is cell-based.
TNFα, sequence (P01375 77-233 limits assumed): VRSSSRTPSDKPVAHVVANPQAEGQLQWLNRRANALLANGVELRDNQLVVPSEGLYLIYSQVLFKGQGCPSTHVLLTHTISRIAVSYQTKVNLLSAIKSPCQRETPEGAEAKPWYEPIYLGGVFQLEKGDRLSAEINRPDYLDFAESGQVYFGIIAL
Settings: not given
As to `CNC(=O)c1ccc(-c2ccc(C[C@@H]3NC(=O)[C@H](CN4CCOCC4)NC(=O)CSC[C@@H](C(=O)NCC(N)=O)NC(=O)[C@H](CC(C)C)NC(=O)[C@H](CCCNC(=N)N)NC(=O)[C@H](C(C)C)NC(=O)[C@@H]4CCCN4C(=O)[C@H](C(C)C)NC(=O)[C@@H](CCCNC(=N)NCc4cccc(CO)c4)NC(=O)[C@H](CC(=O)O)NC(=O)[C@@H]4CCCN4C(=O)CN(C)C(=O)[C@H](Cc4ccc(-c5ccc(NC(=O)c6nn(CC(=O)O)c7ccccc67)cc5)cc4)NC3=O)cc2)cc1` [Example 426] ({CH2CO}-[Ala(morpholin-4-yl)][Bip(4'-CONHMe)][Bip(4'-NH)](Indazole3carbonyl(1-CH2COOH))[Sar]PD[dArg(ω-Bn(3-CH2OH))]VPVRLCG-NH2; thioether N-13), the IC50 is less than 50 nM.
The compound `CC(C)C[C@@H]1NC(=O)[C@H](Cc2ccc(O)cc2)NC(=O)[C@H](C(C)C)NC(=O)[C@@H]2CCCN2C(=O)[C@H](C(C)C)NC(=O)[C@@H](CCCNC(=N)NCc2cccc(CNC(=N)N)c2)NC(=O)[C@H](CC(=O)O)NC(=O)[C@@H]2CCCN2C(=O)CN(C)C(=O)[C@H](Cc2ccc(-c3ccc(NC(=O)c4nn(CC(=O)O)c5ccccc45)cc3)cc2)NC(=O)[C@H](Cc2ccc(-c3ccccc3)cc2)NC(=O)[C@H](CN2CCOCC2)NC(=O)CSC[C@@H](C(=O)NCC(N)=O)NC1=O` [Example 622] ({CH2CO}-[Ala(morpholin-4-yl)][Bip][Bip(4'-NH)](Indazole3carbonyl(1-CH2COOH))[Sar]PD[dArg(Nω-CH2C6H4-3-CH2Gua)]VPVYLCG-NH2; thioether N-13) yielded an IC50 of less than 50 nM.

The assay is the same for the next values; noted with them: HEK-Blue-CD40L cells, NF-kB-driven secreted alkaline phosphatase reporter; TNFα 0.5 ng/ml; 18 h; read-out: TNF induced HEK-Blue assay IC50 value.
`CC[C@H](C)[C@@H]1NC(=O)[C@@H]2CCCN2C(=O)[C@H]([C@@H](C)CC)NC(=O)[C@@H](CCCNC(=N)N)NC(=O)[C@H](CC(=O)O)NC(=O)[C@H](Cc2cnc[nH]2)NC(=O)CN(C)C(=O)[C@H](Cc2ccc(-c3ccc(NC(C)=O)cc3)cc2)NC(=O)[C@H](Cc2ccc(-c3ccc(C(=O)O)cc3)cc2)NC(=O)[C@H](CN2CCOCC2)NC(=O)CSC[C@@H](C(=O)NCC(N)=O)NC(=O)[C@H](CC(C)C)NC(=O)[C@H](Cc2cnc[nH]2)NC1=O` [Example 292] ({CH2CO}-[Ala(morpholin-4-yl)][Bip(4'-COOH)][Bip(4'-NHAc)][Sar]HD[dR]IPIHLCG-NH2; thioether N-13): the IC50 was less than 50 nM.
Regarding `CC[C@H](C)[C@@H]1NC(=O)[C@@H]2CCCN2C(=O)[C@H]([C@@H](C)CC)NC(=O)[C@@H](CCCNC(=N)N)NC(=O)[C@H](CC(=O)O)NC(=O)[C@H](Cc2ccccc2)NC(=O)CN(C)C(=O)[C@H](Cc2ccc(-c3ccc(NC(C)=O)cc3)cc2)NC(=O)[C@H](Cc2ccc(-c3ccc(C(=O)NC)cc3)cc2)NC(=O)[C@H](C(C)(C)C)NC(=O)CSC[C@@H](C(=O)NCC(N)=O)NC(=O)[C@H](CC(C)C)NC(=O)[C@H](Cc2cnc[nH]2)NC1=O` [Example 385] ({CH2CO}-[Tle][Bip(4'-CONHMe)][Bip(4'-NHAc)][Sar]FD[dR]IPIHLCG-NH2; thioether N-13), the IC50 is less than 50 nM.
The same measure, in the same setting: in the case of `CC(C)C[C@@H]1NC(=O)[C@H](CCCNC(=N)N)NC(=O)C(C(C)C)NC(=O)[C@@H]2CCCN2C(=O)[C@H](C(C)C)NC(=O)[C@@H](CCCNC(=N)N)NC(=O)[C@H](CC(=O)O)NC(=O)[C@@H]2CCCN2C(=O)CN(C)C(=O)[C@H](Cc2ccc(-c3cccc(C(=O)NCc4ccc(C(=O)O)cc4)c3)cc2)NC(=O)[C@H](Cc2ccc(-c3ccccc3)cc2)NC(=O)[C@H](CC2CCOCC2)NC(=O)CSC[C@@H](C(=O)NCC(N)=O)NC1=O` (stereo partly shown) [Example 303] ({CH2CO}-[Ala(4-THP)][Bip][X2][Sar]PD[dR]VP[ξV]RLCG-NH2; thioether N-13) it was 200 to 2000 nM; in that of `CC(C)C[C@@H]1NC(=O)[C@H](Cc2ccc(C(F)(F)F)cc2)NC(=O)[C@H](C(C)C)NC(=O)[C@@H]2CCCN2C(=O)[C@H](C(C)C)NC(=O)[C@@H](CCCNC(=N)N)NC(=O)[C@H](CC(=O)O)NC(=O)[C@H](Cc2ccc(O)cc2)NC(=O)CN(C)C(=O)[C@H](Cc2ccc(-c3ccccc3)cc2)NC(=O)[C@H](Cc2ccc(-c3ccccc3)cc2)NC(=O)[C@H](CN2CCOCC2)NC(=O)CSC[C@@H](C(=O)NCC(N)=O)NC1=O` [Example 157] ({CH2CO}-[Ala(morpholin-4-yl)][Bip][Bip][Sar]YD[dR]VPV[Phe(4-CF3)]LCG-NH2; thioether N-13), 200 to 2000 nM.
On to `CC(C)[C@@H]1NC(=O)[C@H](CCCNC(=N)N)NC(=O)[C@H](C(C)C)NC(=O)[C@@H]2CCCN2C(=O)[C@H](C(C)C)NC(=O)[C@H](CCCNC(=N)N)NC(=O)[C@H](CC(=O)O)NC(=O)[C@@H]2CCCN2C(=O)CN(C)C(=O)[C@H](Cc2ccc(-c3cccnc3)cc2)NC(=O)[C@H](Cc2ccc(-c3ccccc3)cc2)NC(=O)[C@H](CN2CCOCC2)NC(=O)CSC[C@@H](C(=O)NCC(N)=O)NC1=O` [Example 92] ({CH2CO}-[Ala(morpholin-4-yl)][Bip][Phe(4-(3-Py))][Sar]PDRVPVRVCG-NH2; thioether N-13), for which the IC50 is 200 to 2000 nM.
Still for that read-out and setting: in the case of `CC(=O)Nc1ccc(-c2ccc(C[C@@H]3NC(=O)[C@H](Cc4ccc(-c5ccc(C(=O)O)cc5)cc4)NC(=O)[C@H](CC4CCCCC4)NC(=O)CSC[C@@H](C(=O)NCC(N)=O)NC(=O)[C@H](CC(C)C)NC(=O)[C@H](Cc4cccc(C(N)=O)c4)NC(=O)[C@H](C(C)C)NC(=O)[C@@H]4CCCN4C(=O)[C@H](C(C)C)NC(=O)[C@@H](CCCNC(=N)N)NC(=O)[C@H](CC(=O)O)NC(=O)[C@H](Cc4ccc(O)cc4)NC(=O)CN(C)C3=O)cc2)cc1` [Example 252] ({CH2CO}-[Cha][Bip(4'-COOH)][Bip(4'-NHAc)][Sar]YD[dR]VPV[Phe(3-CONH2)]LCG-NH2; thioether N-13) it was less than 50 nM; in that of `CC(=O)Nc1ccc(-c2ccc(C[C@@H]3NC(=O)[C@H](Cc4ccc(-c5ccccc5)cc4)NC(=O)[C@H](CC4CCCCC4)NC(=O)CSC[C@@H](C(=O)NCC(N)=O)NC(=O)[C@H](CC(C)C)NC(=O)[C@H](Cc4ccc(O)cc4)NC(=O)[C@H](C(C)C)NC(=O)[C@@H]4CCCN4C(=O)[C@H]([C@H](C)N)NC(=O)[C@@H](CCCNC(=N)N)NC(=O)[C@H](CC(=O)O)NC(=O)[C@@H]4CCCN4C(=O)CN(C)C3=O)cc2)cc1` [Example 239] ({CH2CO}-[Cha][Bip][Bip(4'-NHAc)][Sar]PD[dR][Abu(3S-NH2)]PVYLCG-NH2; thioether N-13), 50 to 200 nM; in that of `CC(C)C[C@@H]1NC(=O)[C@H](Cc2ccc(O)cc2)NC(=O)[C@H](C(C)C)NC(=O)[C@@H]2CCN2C(=O)[C@H](C(C)C)NC(=O)[C@H](CCCNC(=N)N)NC(=O)[C@H](CC(=O)O)NC(=O)[C@H](Cc2ccc(O)cc2)NC(=O)CN(C)C(=O)[C@H](Cc2ccc(-c3ccccc3)cc2)NC(=O)[C@H](Cc2ccc(-c3ccccc3)cc2)NC(=O)[C@H](CN2CCOCC2)NC(=O)CSC[C@@H](C(=O)NCC(N)=O)NC1=O` [Example 75] ({CH2CO}-[Ala(morpholin-4-yl)][Bip][Bip][Sar]YDRV[Aze]VYLCG-NH2; thioether N-13), 200 to 2000 nM.
